Here are results for eight compounds from ChEMBL document CHEMBL1124202, “Synthesis and evaluation of multisubstrate inhibitors of an oncogene-encoded tyrosine-specific protein kinase. 2” (J Med Chem, 1988).

For the assay, the target named is T1, Tyrosine-protein kinase transforming protein Abl (Abelson murine leukemia virus, UniProt P00521).
T1 sequence (P00521 whole entry): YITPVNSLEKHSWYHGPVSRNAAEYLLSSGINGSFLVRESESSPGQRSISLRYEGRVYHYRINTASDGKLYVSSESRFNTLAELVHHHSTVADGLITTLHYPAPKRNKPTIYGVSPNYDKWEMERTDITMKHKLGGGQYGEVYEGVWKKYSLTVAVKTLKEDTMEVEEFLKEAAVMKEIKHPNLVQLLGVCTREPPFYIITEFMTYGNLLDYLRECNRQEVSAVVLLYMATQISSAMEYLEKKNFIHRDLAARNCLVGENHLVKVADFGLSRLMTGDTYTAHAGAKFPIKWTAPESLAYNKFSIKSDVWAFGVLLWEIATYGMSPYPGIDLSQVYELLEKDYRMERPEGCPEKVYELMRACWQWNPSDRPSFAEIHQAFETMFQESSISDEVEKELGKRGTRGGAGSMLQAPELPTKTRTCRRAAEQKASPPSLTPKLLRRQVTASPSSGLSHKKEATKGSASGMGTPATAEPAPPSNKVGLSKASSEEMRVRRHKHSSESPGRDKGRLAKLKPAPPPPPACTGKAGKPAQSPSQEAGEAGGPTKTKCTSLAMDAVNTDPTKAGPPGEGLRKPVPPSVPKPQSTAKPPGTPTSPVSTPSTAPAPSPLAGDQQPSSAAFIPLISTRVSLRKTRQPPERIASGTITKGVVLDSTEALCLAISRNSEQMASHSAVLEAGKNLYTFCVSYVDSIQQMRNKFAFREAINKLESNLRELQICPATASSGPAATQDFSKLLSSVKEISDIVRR
The assay is described as follows: Inhibition of p60v-abl tyrosine kinase from Abelson murine leukemia virus.
Compound `Nc1ncnc2c1ncn2[C@@H]1O[C@H](COP(=O)(O)OP(=O)(O)OP(=O)(O)Oc2ccccc2)[C@@H](O)[C@H]1O` displayed an IC50 of 13 µM.

In the case of `CC(=O)NCCNP(=O)(O)OP(=O)(O)OP(=O)(O)OC[C@H]1O[C@@H](n2cnc3c(N)ncnc32)[C@H](O)[C@@H]1O`, the IC50 turned out to be 25 µM.

For the compound `Cc1ccc(NP(=O)(O)OP(=O)(O)OP(=O)(O)OC[C@H]2O[C@@H](n3cnc4c(N)ncnc43)[C@H](O)[C@@H]2O)cc1`, the IC50 is 150 µM.

The compound `Nc1ncnc2c1ncn2[C@@H]1O[C@H](COP(=O)(O)OP(=O)(O)OP(=O)(O)OP(=O)(O)Oc2ccccc2)[C@@H](O)[C@H]1O` showed an IC50 of 41 µM. Compared with the last compound, the IC50 is about 3.7-fold lower.

Regarding `CC(=O)NC(Cc1ccc(NP(=O)(O)OP(=O)(O)OP(=O)(O)OC[C@H]2O[C@@H](n3cnc4c(N)ncnc43)[C@H](O)[C@@H]2O)cc1)C(N)=O` (stereo partly drawn), the IC50 is 44 µM.

In the case of `CC(=O)NC(Cc1ccc(NP(=O)(O)OP(=O)(O)OP(=O)(O)OP(=O)(O)OC[C@H]2O[C@@H](n3cnc4c(N)ncnc43)[C@H](O)[C@@H]2O)cc1)C(N)=O` (stereo partly drawn), the midpoint of inhibition, the IC50, lay at 110 µM. This IC50 lies about 2.5-fold higher than the previous one.

Turning to `Cc1ccc(NP(=O)(O)OP(=O)(O)OP(=O)(O)OP(=O)(O)OC[C@H]2O[C@@H](n3cnc4c(N)ncnc43)[C@H](O)[C@@H]2O)cc1`, inhibition was half-maximal at 16 µM (IC50). This IC50 is about 6.9-fold lower than that of the compound before.

`COc1ccc(CNP(=O)(O)OP(=O)(O)OP(=O)(O)OC[C@H]2OC(n3cnc4c(N)ncnc43)[C@H](O)[C@@H]2O)cc1` (stereo partly drawn): the concentration for half-maximal inhibition (IC50) worked out at 90 µM. Against the preceding compound, the IC50 is about 5.6-fold higher.
